Measurements taken from patent US20080038277A1, “Dna Pkinase Inhibitors For Treating Cancer And Diabetes” (priority 2004, published 2008).

What was measured:
[1] = system: PKB; details: cisplatin treatment (ref. 32); cited from earlier work
[2] = system: DNA-PK; details: through proteolytic degradation of DNA-PK (ref. 31); cited from earlier work
[3] = biological target: T1, S473K1 (Homo sapiens, UniProt P78527); experiment: S473K1 (Mono Q fraction 27) kinase assay with FSY peptide plus DNA, or GST-PKBα419-480 and pS473 Western blot; assay type: biochemical; details: LY294002 5 μM, wortmannin 2 μM, staurosporine 5 μM; FSY peptide in presence of DNA and GST-PKBα419-480 (FIGS. 1E and F)
T1 construct: purification and identification of this kinase from HEK293 cells; endogenous in cells; host or cells: HEK293 crude membrane fraction, purified over Q-Sepharose, Mono S and Mono Q
Description: FIG. 1. Identification and purification of S473K. (A-C) Mono Q fractions were assayed for S473K activity with the FSY (solid) or FAY peptides (open) in the presence (triangles) or absence (circles) of DNA. […] (B) A 10-μl aliquot of each fraction was subjected to 8% SDS-PAGE and proteins visualized by Coomassie Blue staining. (C) Western blotting of fractions with anti-DNA-PKcs and anti-Ku80/Ku70 antibodies. (D) Recombinant ΔPH-PKBαT309P (PKB) was first incubated with S473K1 (5 μl), 10 μg/ml fetal calf thymus DNA, and 100 μM ATP in kinase buffer for different times. Aliquots of the reaction mixture were removed for assay of PKB activity as described in (11) or for Western blotting with pS473 and pT308 phospho-specific antibodies. […].
All steps were performed at 4° C. Four hundred plates (Ø […]) of HEK293 cells were harvested in ice-cold phosphate-buffered saline and homogenized in ice-cold buffer A (50 mM Tris-HCl pH 7.4, 300 mM sucrose, 1 mM dithiothreitol, 10 mM sodium fluoride, 0.1 mM sodium orthovanadate, 20 nM okadiac acid, 1 mM phenylmethanesulfonyl fluoride and 1 mM benzamidine) using a polytron homogenizer. The nuclear fraction was removed by centrifuging at 1000 g for 10 min and the resulting supernatant was further centrifuged at 100,000 g for 60 min. […]

[4] = biological target: T2, purified DNA-PK (Homo sapiens, UniProt P78527); experiment: Purified DNA-PK phosphorylation of PKB (FSY peptide / GST-PKBα419-480); assay type: biochemical; details: FSY peptide and GST-PKBα419-480; staurosporine 5 μM (FIGS. 2A and B)
T2 construct: purified DNA-PK (from HeLa cells and human placenta) was tested; purchased Promega; host or cells: HeLa cells and human placenta
Description: FIG. 2. DNA-PK phosphorylates and activates PKB in vitro. (A) Purified DNA-PK (Promega) (25 units) was assayed with 0.1 mg/ml of FSY, FAY and DNA-PK p53 substrate peptide (CTL) in the presence (+) or absence (−) of DNA. […]; aliquots of the reaction mixture were removed for assay of PKB activity as described in FIG. 1D or for Western blotting with pS473 and pT308 phospho-specific antibodies. (D) GST-PKBα419-480 and His-p53 (each 1 μg) were incubated with 25 units of purified DNA-PK and 100 μM [γ-32P]ATP in kinase buffer (11). The reactions were terminated and analyzed on 10% SDS-PAGE followed by autoradiography or 32P determination in excised gel slices.
An antibody specific for PKB phosphorylated on Thr-308 (pT308) was purchased from Cell Signaling Technologies. An antibody specific for PKB phosphorylated on Ser-473 (pS473) was produced and purified as previously described (33). Polyclonal anti-PKB antibody (antibody10) (34) and monoclonal anti-PKB (A4D6) (35) have been described previously. Anti-Ku80, and anti-Ku 70 antibodies were purchased from Transduction Labs. Anti-DNA-PKcs (monoclonal G4) was from Santa Cruz Inc. Double-stranded fetal calf thymus DNA was from Sigma, and purified human DNA-PK protein and p53 substrate peptide […] (36) from Promega. […]

T1 sequence (P78527 whole entry, one chain of several): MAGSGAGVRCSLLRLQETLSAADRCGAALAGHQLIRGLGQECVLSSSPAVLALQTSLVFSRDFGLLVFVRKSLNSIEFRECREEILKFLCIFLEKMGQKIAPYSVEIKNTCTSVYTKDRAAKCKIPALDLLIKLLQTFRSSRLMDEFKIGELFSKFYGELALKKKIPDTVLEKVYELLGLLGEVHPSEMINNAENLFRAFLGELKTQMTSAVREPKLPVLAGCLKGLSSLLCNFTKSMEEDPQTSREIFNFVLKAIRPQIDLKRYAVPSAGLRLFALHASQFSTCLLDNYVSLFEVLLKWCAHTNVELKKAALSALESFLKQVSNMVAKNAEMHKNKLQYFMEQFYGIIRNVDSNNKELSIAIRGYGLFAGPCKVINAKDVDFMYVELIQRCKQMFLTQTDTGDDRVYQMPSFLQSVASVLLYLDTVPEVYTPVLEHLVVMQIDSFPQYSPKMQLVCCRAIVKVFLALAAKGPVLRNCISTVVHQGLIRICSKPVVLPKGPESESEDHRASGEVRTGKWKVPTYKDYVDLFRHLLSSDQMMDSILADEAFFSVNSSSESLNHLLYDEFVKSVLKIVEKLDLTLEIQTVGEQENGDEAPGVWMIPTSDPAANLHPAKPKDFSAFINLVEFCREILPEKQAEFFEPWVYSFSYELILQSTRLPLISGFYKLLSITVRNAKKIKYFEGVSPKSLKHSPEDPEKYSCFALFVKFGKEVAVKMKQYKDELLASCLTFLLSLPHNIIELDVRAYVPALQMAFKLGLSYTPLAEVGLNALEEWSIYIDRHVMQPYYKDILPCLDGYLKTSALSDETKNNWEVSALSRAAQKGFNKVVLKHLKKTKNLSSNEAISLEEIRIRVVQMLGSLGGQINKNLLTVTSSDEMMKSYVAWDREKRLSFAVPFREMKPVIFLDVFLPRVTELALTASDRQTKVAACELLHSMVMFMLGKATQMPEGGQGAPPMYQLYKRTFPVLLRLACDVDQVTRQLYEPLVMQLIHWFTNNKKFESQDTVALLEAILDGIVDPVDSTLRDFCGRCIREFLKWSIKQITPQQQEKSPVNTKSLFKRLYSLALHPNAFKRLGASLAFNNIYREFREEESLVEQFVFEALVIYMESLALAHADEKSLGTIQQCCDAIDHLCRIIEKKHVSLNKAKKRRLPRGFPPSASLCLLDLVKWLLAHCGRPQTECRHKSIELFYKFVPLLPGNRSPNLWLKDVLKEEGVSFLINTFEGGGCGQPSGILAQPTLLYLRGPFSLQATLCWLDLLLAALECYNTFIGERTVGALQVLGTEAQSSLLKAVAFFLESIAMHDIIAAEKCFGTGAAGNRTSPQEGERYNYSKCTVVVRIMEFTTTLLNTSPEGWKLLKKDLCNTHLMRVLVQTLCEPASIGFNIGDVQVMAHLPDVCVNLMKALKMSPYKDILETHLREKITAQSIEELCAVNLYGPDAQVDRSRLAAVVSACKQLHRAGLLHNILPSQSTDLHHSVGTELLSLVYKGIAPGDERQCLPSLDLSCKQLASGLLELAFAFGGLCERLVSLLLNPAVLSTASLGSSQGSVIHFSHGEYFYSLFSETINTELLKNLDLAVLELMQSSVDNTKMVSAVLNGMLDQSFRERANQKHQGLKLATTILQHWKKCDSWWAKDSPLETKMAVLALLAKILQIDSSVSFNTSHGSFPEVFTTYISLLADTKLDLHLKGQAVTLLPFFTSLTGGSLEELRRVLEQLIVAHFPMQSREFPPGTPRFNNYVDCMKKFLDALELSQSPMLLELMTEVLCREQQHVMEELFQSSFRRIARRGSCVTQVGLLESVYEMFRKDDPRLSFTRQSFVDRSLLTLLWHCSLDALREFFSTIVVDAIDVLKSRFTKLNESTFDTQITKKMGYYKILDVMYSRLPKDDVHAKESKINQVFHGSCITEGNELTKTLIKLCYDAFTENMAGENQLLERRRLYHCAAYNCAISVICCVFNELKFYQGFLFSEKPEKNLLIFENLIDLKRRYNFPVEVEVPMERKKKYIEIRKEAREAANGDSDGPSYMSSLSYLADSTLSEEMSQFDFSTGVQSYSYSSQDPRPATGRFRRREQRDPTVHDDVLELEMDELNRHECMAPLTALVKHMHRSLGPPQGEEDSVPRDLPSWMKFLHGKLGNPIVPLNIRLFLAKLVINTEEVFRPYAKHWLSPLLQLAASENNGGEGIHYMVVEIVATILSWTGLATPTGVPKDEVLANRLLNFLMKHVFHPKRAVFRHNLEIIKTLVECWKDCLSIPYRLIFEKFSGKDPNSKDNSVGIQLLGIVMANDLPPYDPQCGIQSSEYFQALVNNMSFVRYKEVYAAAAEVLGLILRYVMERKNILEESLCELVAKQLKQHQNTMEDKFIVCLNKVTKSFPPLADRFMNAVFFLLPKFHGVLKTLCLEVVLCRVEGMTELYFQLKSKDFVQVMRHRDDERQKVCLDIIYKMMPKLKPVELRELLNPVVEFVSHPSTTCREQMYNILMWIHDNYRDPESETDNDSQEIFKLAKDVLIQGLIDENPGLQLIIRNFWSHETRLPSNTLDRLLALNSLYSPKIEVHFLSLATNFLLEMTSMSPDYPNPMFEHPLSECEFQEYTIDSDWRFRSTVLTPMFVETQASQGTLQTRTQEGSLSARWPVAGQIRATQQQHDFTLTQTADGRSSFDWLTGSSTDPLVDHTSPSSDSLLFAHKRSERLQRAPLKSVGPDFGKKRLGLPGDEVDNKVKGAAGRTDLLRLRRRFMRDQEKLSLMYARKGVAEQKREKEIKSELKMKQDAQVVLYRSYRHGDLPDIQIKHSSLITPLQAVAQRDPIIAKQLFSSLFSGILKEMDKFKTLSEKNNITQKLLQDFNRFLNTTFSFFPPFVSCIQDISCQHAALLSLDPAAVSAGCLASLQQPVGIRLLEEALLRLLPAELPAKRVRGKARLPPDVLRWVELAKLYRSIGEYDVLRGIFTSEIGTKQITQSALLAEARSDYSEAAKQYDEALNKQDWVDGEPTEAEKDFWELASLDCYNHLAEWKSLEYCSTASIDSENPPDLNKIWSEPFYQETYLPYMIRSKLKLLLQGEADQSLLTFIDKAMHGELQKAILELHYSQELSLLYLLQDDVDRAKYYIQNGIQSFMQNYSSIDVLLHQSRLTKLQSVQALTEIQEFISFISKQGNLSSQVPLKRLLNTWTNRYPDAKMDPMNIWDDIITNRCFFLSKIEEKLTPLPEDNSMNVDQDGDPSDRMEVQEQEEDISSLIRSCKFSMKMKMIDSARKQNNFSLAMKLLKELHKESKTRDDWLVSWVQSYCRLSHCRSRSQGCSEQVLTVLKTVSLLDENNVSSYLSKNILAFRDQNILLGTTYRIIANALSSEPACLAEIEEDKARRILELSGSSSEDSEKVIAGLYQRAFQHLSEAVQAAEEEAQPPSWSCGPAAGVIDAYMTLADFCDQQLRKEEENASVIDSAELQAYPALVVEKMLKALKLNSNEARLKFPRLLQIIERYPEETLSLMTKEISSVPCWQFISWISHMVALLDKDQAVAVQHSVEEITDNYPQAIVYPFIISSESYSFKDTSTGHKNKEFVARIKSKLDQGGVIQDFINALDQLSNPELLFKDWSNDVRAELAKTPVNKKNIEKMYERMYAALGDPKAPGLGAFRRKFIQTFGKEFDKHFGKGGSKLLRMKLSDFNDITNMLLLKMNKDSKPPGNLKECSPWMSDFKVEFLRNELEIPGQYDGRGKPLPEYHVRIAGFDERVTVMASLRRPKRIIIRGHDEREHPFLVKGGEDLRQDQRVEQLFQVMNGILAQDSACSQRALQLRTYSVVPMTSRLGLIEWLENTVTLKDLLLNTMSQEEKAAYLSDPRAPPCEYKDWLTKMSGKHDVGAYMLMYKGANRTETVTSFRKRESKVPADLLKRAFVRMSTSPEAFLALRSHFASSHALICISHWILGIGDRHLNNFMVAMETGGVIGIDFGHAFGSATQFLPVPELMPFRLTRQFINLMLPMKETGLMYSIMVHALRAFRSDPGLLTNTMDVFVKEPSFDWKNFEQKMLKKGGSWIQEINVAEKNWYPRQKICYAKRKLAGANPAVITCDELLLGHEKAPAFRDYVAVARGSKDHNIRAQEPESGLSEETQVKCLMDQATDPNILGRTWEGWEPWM

Question: With `N.N.[Cl][Pt][Cl]` [cisplatin] as the compound, how does the “PKB activity and Ser-473 phosphorylation” value [1] read?
Answer: inhibited

Question: What about the DNA-PK activity [2] of the same compound?
Answer: decrease

Question: Which S473K1 activity [3] does the source give for `CN[C@@H]1C[C@H]2O[C@@](C)([C@@H]1OC)n1c3ccccc3c3c4c(c5c6ccccc6n2c5c31)C(=O)NC4` [staurosporine] here?
Answer: not affected

Question: And the “phosphorylation of PKB catalyzed by purified DNA-PK” value [4]?
Answer: resistant
